Reference: patent publication US8445677B2, “Substituted pyrimidyl guanidine derivatives having anticancer activity” (University of Southern California, priority 2008, dated 2013)
“And” between values parts separate entries of the source, which are not always exact repeats. Identical values can stand only once.

Legend:
Experiment in all cases: MTT cytotoxicity assay (Example 1)
[1] = test system: HEY; assay type: cell-based, human; conditions: 72 h
Description: (§1) Human breast cancer cells MDA-MB-435 were purchased from the American Type Culture Collection (Manassas, Va.). The HCT116 p53+/+ and HCT116 p53−/− cells were kindly provided by Dr. Bert Vogelstein (Johns Hopkins Medical Institutions, Baltimore, Md.). The human ovarian carcinoma cell line (HEY) which is naturally resistant to cisplatin, was kindly provided by Dr. Louis Dubeau, University of Southern California (USC) Norris Cancer Center, and NIH3T3 normal mouse fibroblast cells were kindly provided by Dr. Michael Press from USC. HEY and NIH3T3 cells were maintained as monolayer cultures in RPMI, HCT 116 cells in McCoy1s5A media and MDA-MB 435 in DMEM. Media were purchased from (Mediatech, Virginia) and supplemented with 10% fetal bovine serum (Gemini-Bioproducts, Woodland, Calif.), 2 mM L-glutamine and 5% Penicillin/streptomycin from Bio whittaker were purchased from VWR. Cells were incubated at 37° C. in a humidified atmosphere of 5% CO2. To remove the adherent cells from the flask for passaging and counting, cells were washed with PBS without calcium or magnesium, incubated with a small volume of 0.25% trypsin-EDTA solution (Sigma-Aldrich, St. Louis, Mo.) for 5-10 min, and washed with culture medium and centrifuged. All experiments were performed using cells at exponential growth stage. Cells were routinely checked for mycoplasma contamination using a PCR-based assay (Stratagene, Tex., USA).
(§2) Stock solutions (10 mM) of all compounds were prepared in DMSO and stored at −20° C. Further dilutions were made fresh in PBS or cell-culture media right before cell treatment.
(§3) Cytotoxicity was assessed by a 3-(4,s-dimethylthiazol-2-yl)-2,5-diphenyltetrazolium bromide (MTT) assay as previously described.^24 Briefly, cells were seeded in 96-well microtiter plates and allowed to attach overnight. Cells were subsequently treated with continuous exposure to the corresponding drug for 72 h. A MTT solution (at a final concentration of 0.5 mglml) was added to each well, and cells were incubated for 4 h at 37° C. After removal of the medium, DMSO was added and the absorbance was read at 570 nm. All assays were done in triplicate. The IC50 was then determined for each drug from a plot of log (drug concentration) versus percentage of cells killed.

[2] = test system: MDA-MB-435; assay type: cell-based, human
Description: as §1, §2, §3

[3] = test system: HCT116 p53+/+; assay type: cell-based; conditions: MTT, 72 h
Description: as §1, §2, §3

[4] = test system: HCT116 p53−/−; assay type: cell-based; conditions: MTT, 72 h
Description: as §1, §2, §3

[5] = test system: NIH3T3; assay type: cell-based, mouse
Description: as §1, §2, §3

Structure (SMILES) | IC50 ([1]; Homo sapiens) | IC50 ([2]; Homo sapiens, MDA-MB-435, 72 h) | IC50 ([3]; Homo sapiens, HCT-116, 72 h) | IC50 ([4]; Homo sapiens, HCT-116, 72 h) | IC50 ([5]; Mus musculus, NIH3T3, 72 h) | IC50 [4] | IC50 [1] | IC50 ([2]; 72 h) | IC50 [3] | IC50 ([5]; 72 h)
COC(=O)c1ccc(/C=N/Nc2nc3nonc3nc2Nc2ccccc2F)cc1 [Compound 1] | 10 µM | 5 µM | > 10 µM | 10 µM | > 10 µM |  |  |  |  | 
COc1cc(/C=N/Nc2nc3nonc3nc2Nc2ccccc2F)ccc1O [Compound 3] | 5 µM | > 10 µM | > 10 µM | > 10 µM | > 10 µM |  |  |  |  | 
COc1ccc(/C=N/Nc2nc3nonc3nc2Nc2ccc(F)cc2)cc1Br [Compound 4] | 10 µM | 10 µM | 4 µM | 3 µM | 6 µM | 2 µM |  |  |  | 
Brc1ccc(/C=N/Nc2nc3nonc3nc2Nc2cccc(Br)c2)cc1 [Compound 5] | 2 µM | > 10 µM | 2 µM | 1.1 µM | 1 µM | 1.2 µM | 3 µM |  |  | 
Oc1ccc(Br)cc1/C=N/Nc1nc2nonc2nc1Nc1ccc(Cl)cc1 [Compound 6] | < 3 µM | < 3 µM | < 3 µM | < 3 µM | 2 ± 0.5 µM | 1.6 ± 0.7 µM | 1.6 ± 0.6 µM | 4 ± 1 µM | 2.7 ± 0.6 µM | 
COc1cc(/C=N/Nc2nc3nonc3nc2Nc2ccc(Cl)cc2)ccc1O [Compound 7] | 2 µM | > 10 µM | > 10 µM | 5.5 µM | > 10 µM |  |  |  |  | 
Cc1ccccc1Nc1nc2nonc2nc1N/N=C/c1cc(Br)ccc1O [Compound 8] | 5 µM | > 10 µM | 2 µM | 1.1 ± 0.4 µM | > 10 µM |  |  |  |  | 
COc1ccc(/C=N/Nc2nc3nonc3nc2Nc2ccccc2OC)cc1Br [Compound 9] | > 10 µM | > 20 µM | > 20 µM | > 10 µM | > 10 µM |  |  |  |  | 
COc1ccccc1Nc1nc2nonc2nc1N/N=C/c1ccccc1F [Compound 10] | > 10 µM | > 10 µM | > 10 µM | > 10 µM | > 10 µM |  |  |  |  | 
CCOC(=O)c1ccc(Nc2nc3nonc3nc2N/N=C/c2cccc3ccccc23)cc1 [Compound 11] | 4 µM | > 10 µM | > 10 µM | 2 µM | 2 µM |  |  |  |  | 
Cc1ccccc1Nc1nc2nonc2nc1N/N=C/c1cccc2ccccc12 [Compound 12] | > 10 µM | > 10 µM | > 10 µM | 10 µM | 10 µM |  |  |  |  | 
O=C(O)c1cc(-c2ccc(C=NNc3nc4nonc4nc3Nc3ccc(F)cc3)o2)ccc1Cl [Compound 13] | > 10 µM | > 10 µM | > 10 µM | 7 µM | 10 µM |  |  |  |  | 
O=C(O)c1cc(-c2ccc(/C=N/Nc3nc4nonc4nc3Nc3ccccc3F)o2)ccc1Cl [Compound 14] | 10 µM | > 10 µM | > 10 µM | 7 µM | > 10 µM |  |  |  |  | 
O=C(O)c1cccc(-c2ccc(C=NNc3nc4nonc4nc3Nc3ccc(F)cc3)o2)c1 [Compound 15] |  | < 3 µM |  |  | 10 µM |  |  | 2.8 µM and 3 µM |  | 
Cc1cc(-c2ccc(/C=N/Nc3nc4nonc4nc3Nc3ccccc3F)o2)c(C)c([N+](=O)[O-])c1 [Compound 16] | 0.8 µM | 4 µM | 1.5 µM | 0.8 ± 0.1 µM | 2 µM |  |  |  |  | 
O=C(O)c1cc(-c2ccc(/C=N/Nc3nc4nonc4nc3Nc3ccccc3F)o2)ccc1Cl [Compound 17] |  |  |  |  |  | > 10 µM | 15 µM | > 20 µM | 7 ± 1 µM | > 10 µM
